Reference: PubChem BioAssay AID1259408 (Genetic Toxicology Data Bank (GENE-TOX), 2018)
The source made the active and inactive calls. How the calls were made is not given here.

Test system: GENE-TOX genotoxicity assays, various organisms and cells
Experiment: GENE-TOX mutagenicity studies
Conditions: for call: Assay Type: In vivo carcinogenicity studies
From the text: GENE-TOX provides genetic toxicology (mutagenicity) test data from expert peer review of open scientific literature for more than 3,000 chemicals from the United States Environmental Protection Agency (EPA). GENE-TOX was established to select assay systems for evaluation, review data in the scientific literature, and recommend proper testing protocols and evaluation procedures for these systems.
GENE-TOX covers the years 1991 - 1998. It is no longer updated.
This is an archive assay for GENE-TOX mutagenicity studies.

[1] = Species/Cell Type: Salmonella typhimurium (one or more of the five standard strains: TA98, TA100, TA1535, TA1537, and TA1538), Assay Type: Histidine reverse gene mutation, Ames assay, Assay Code: SAL+, Evaluation Type: Evaluation A (Pre-1980)
[2] = Species/Cell Type: Nonhuman, Assay Type: Sister-chromatid exchange (SCE) in vitro, Assay Code: SC2+D, Dose Response: With dose response, Evaluation Type: Evaluation B (Post-1980)
[3] = Species/Cell Type: Mammalian polychromatic erythrocytes, Assay Type: Micronucleus test, chromosome aberrations, Assay Code: MNT-, Evaluation Type: Evaluation B (Post-1980)
[4] = Species/Cell Type: Salmonella typhimurium (one or more of the five standard strains: TA98, TA100, TA1535, TA1537, and TA1538), Assay Type: Histidine reverse gene mutation, Ames assay, Assay Code: SAL+*, Activation: With metabolic activation, Evaluation Type: Evaluation A (Pre-1980)
[5] = Species/Cell Type: Rodents, Sex: Male, Assay Type: Dominant lethal test, Assay Code: DLT-, Evaluation Type: Evaluation A (Pre-1980)
[6] = Species/Cell Type: Salmonella typhimurium (one or more of the five standard strains: TA98, TA100, TA1535, TA1537, and TA1538), Assay Type: Histidine reverse gene mutation, Ames assay, Assay Code: SALT, Evaluation Type: Evaluation A (Pre-1980)
[7] = Species/Cell Type: Chinese hamster lung (V79) cells, Assay Type: Forward gene mutation at the HPRT or ouabain locus, Assay Code: V79+, Evaluation Type: Evaluation A (Pre-1980)
[8] = Species/Cell Type: Nonhuman, Assay Code: CCG+L, Evaluation Type: Evaluation A (Pre-1980)
[9] = Species/Cell Type: Mammalian polychromatic erythrocytes, Assay Type: Micronucleus test, chromosome aberrations, Assay Code: MNTT, Evaluation Type: Evaluation A (Pre-1980)

In the case of `O=[N+]([O-])c1cccc([N+](=O)[O-])c1Cl`, the mutagenic call (Species/Cell Type: Escherichia coli polA (W3119 vs P3478), Assay Type: Rec-assay, DNA effects (bacterial DNA repair), Assay Code: RE1T, Evaluation Type: Evaluation A (Pre-1980)) is reported as “no conclusion”.

In the case of `C=CC(OC(C)=O)c1ccc2c(c1)OCO2` (stereo unspecified), the mutagenic call (Species/Cell Type: Escherichia coli polA (W3119 vs P3478), Assay Type: Rec-assay, DNA effects (bacterial DNA repair), Assay Code: RE1+, Evaluation Type: Evaluation A (Pre-1980)) is reported as “active; positive”, the mutagenic call (Species/Cell Type: Saccharomyces cerevisiae, Assay Type: Mitotic recombination or gene conversion, Assay Code: YEH+, Evaluation Type: Evaluation A (Pre-1980)) is reported as “active; positive” and the mutagenic call [1] is reported as “active; positive”.

`[Zn]` was tested, and the mutagenic call (Species/Cell Type: Human lymphocytes or leukocytes, Assay Type: Chromosome aberrations in vivo, Assay Code: CY8T, Evaluation Type: Evaluation A (Pre-1980)) was “no conclusion”.

`Nc1cc2c(cn1)[nH]c1ccccc12` was tested, and the mutagenic call (Species/Cell Type: Human, Assay Type: Sister-chromatid exchange (SCE) in vitro, Assay Code: SC1+, Evaluation Type: Evaluation B (Post-1980)) was “active; positive” and the mutagenic call [2] was “active; positive”.

`C[C@@H]1O[C@@H](OC[C@H]2O[C@@H](Oc3c(-c4ccc(OCCO)c(OCCO)c4)oc4cc(OCCO)cc(O)c4c3=O)[C@H](O)[C@@H](O)[C@@H]2O)[C@H](O)[C@H](O)[C@H]1O` was tested, and the mutagenic call [3] was “inactive; negative”.

With `[Cl][Rh]([Cl])[Cl]` the mutagenic call (Species/Cell Type: Bacillus subtilis (H17 vs M45), Assay Type: Rec-assay, spot test, DNA effects (bacterial DNA repair), Assay Code: REW+, Evaluation Type: Evaluation A (Pre-1980)) was “active; positive”.

In the case of `CCOc1ccc(CC(=O)NN)cc1CN(CC)CC`, the mutagenic call (Species/Cell Type: Saccharomyces cerevisiae, Assay Type: Reverse gene mutation, Assay Code: YERT, Evaluation Type: Evaluation A (Pre-1980)) is reported as “no conclusion”.

`c1ccc2c(c1)Cc1c(c3ccccc3c3ccccc13)C2` was tested, and the mutagenic call [4] was “active; positive”.

In the case of `O`, the mutagenic call (Species/Cell Type: Bacillus subtilis (H17 vs M45), Assay Type: Rec-assay, spot test, DNA effects (bacterial DNA repair), Assay Code: REWT, Evaluation Type: Evaluation A (Pre-1980)) is reported as “no conclusion”, the mutagenic call (Species/Cell Type: Nonhuman, Assay Type: Sister-chromatid exchange (SCE) in vitro, Assay Code: SC2T, Evaluation Type: Evaluation B (Post-1980)) is reported as “no conclusion” and the mutagenic call (Species/Cell Type: Syrian hamster embryo (SA7/SHE) cells, Assay Type: Cell transformation, viral enhanced, Assay Code: CT7-, Evaluation Type: Evaluation A (Pre-1980)) is reported as “inactive; negative”.

`OCC(O)CCl` (stereo unspecified) was tested, and the mutagenic call (Species/Cell Type: Rat, Sex: Male, Assay Type: Sperm morphology, Assay Code: SPAT, Evaluation Type: Evaluation A (Pre-1980)) was “no conclusion” and the mutagenic call [5] was “inactive; negative”.

`O=C(OCC1=CCN2CC[C@@H](OC(=O)c3ccc4c(c3)OCO4)[C@@H]12)c1ccc2c(c1)OCO2` was tested, and the mutagenic call (Species/Cell Type: Allium cepa, Assay Type: Chromosome aberrations, Assay Code: ALC+, Evaluation Type: Evaluation A (Pre-1980)) was “active; positive”.

For `CCCCCCN(N=O)/C(N)=N/[N+](=O)[O-]`, the mutagenic call [6] was “no conclusion”.

`COc1ccccc1[N+](=O)[O-]` was tested, and the mutagenic call [6] was “no conclusion”.

In the case of `Cc1c(N)cccc1N`, the call (Species/Cell Type: Nonhuman, Assay Code: CCG-, Evaluation Type: Evaluation A (Pre-1980)) is reported as “inactive; negative”.

With `Cc1ccc2cc3c(ccc4ccccc43)c3c2c1C(O)C3` (stereo unspecified) the mutagenic call [7] was “active; positive”, the call [8] was “active; positive” and the mutagenic call [6] was “no conclusion”.

With `CCn1c(=O)n(C)c2c(=O)n(C)c(=O)n(C)c21` the mutagenic call (Species/Cell Type: Allium cepa, Assay Type: Chromosome aberrations, Assay Code: ALC+D, Dose Response: With dose response, Evaluation Type: Evaluation A (Pre-1980)) was “active; positive”.

With `CCC(=O)N(C)N=O` the mutagenic call (Species/Cell Type: Saccharomyces cerevisiae, Assay Type: Reverse gene mutation, Assay Code: YER+, Evaluation Type: Evaluation A (Pre-1980)) was “active; positive”.

With `CC(=O)ONC(=O)c1ccc2ccccc2c1` the mutagenic call [2] was “active; positive”.

In the case of `CCN(CCO)CCNc1ccc(CO)c2sc3cc(Cl)ccc3c(=O)c12`, the mutagenic call (Species/Cell Type: Mouse lymphoma (L5178Y) cells, Assay Type: Forward gene mutation at the thymidine kinase (TK) locus, chromosome aberrations, Assay Code: L51+, Evaluation Type: Evaluation A (Pre-1980)) is reported as “active; positive”.

In the case of `CC(=O)Nc1nnc(-c2ccc([N+](=O)[O-])o2)s1`, the mutagenic call [1] is reported as “active; positive”.

For `NC[C@@H]1CC[C@@H](N)[C@@H](O[C@H]2[C@H](O)[C@@H](O[C@H]3O[C@H](CO)[C@@H](O)[C@H](N)[C@H]3O)[C@H](N)C[C@@H]2N)O1`, the mutagenic call (Species/Cell Type: Saccharomyces cerevisiae, Assay Type: Mitotic recombination or gene conversion, Assay Code: YEH-, Evaluation Type: Evaluation A (Pre-1980)) was “inactive; negative”.

For `CC/C(=C(/CC)c1ccc(OP(=O)(O)O)cc1)c1ccc(OP(=O)(O)O)cc1`, the mutagenic call [9] was “no conclusion”, the mutagenic call (Species/Cell Type: Neurospora crassa, Assay Type: Aneuploidy, chromosome aberrations, Assay Code: NEN-, Evaluation Type: Evaluation A (Pre-1980)) was “inactive; negative” and the mutagenic call (Species/Cell Type: Nonhuman, Assay Type: Sister-chromatid exchange (SCE) in vivo, Assay Code: SC3-, Evaluation Type: Evaluation B (Post-1980)) was “inactive; negative”. The mutagenic call (Species/Cell Type: Rodents, Sex: Male, Assay Type: Dominant lethal test, Assay Code: DLT+, Evaluation Type: Evaluation A (Pre-1980)) was “active; positive”.

`Cl/C=C(\Cl)C(Cl)Cl` was tested, and the mutagenic call [2] was “active; positive”.

For `CN(C)C(=O)N1CC1`, the mutagenic call (Species/Cell Type: Schizosaccharomyces pombe, Assay Type: Reverse gene mutation, Assay Code: YEZ+, Evaluation Type: Evaluation A (Pre-1980)) was “active; positive”.

With `ClC1=C(Cl)[C@]2(Cl)[C@@H]3[C@@H](Cl)[C@H]4O[C@H]4[C@@H]3[C@@]1(Cl)C2(Cl)Cl` the mutagenic call (Species/Cell Type: Drosophila melanogaster, Assay Type: Sex-linked recessive lethal gene mutation, Assay Code: SRLT, Evaluation Type: Evaluation A (Pre-1980)) was “no conclusion”, the mutagenic call [5] was “inactive; negative” and the mutagenic call [6] was “no conclusion”.

For `COc1ccc(/C=C/Cl)cc1`, the mutagenic call (Species/Cell Type: Human lymphocytes, Assay Type: Sister-chromatid exchange (SCE) in vitro, Assay Code: SCL+D, Dose Response: With dose response, Evaluation Type: Evaluation B (Post-1980)) was “active; positive” and the mutagenic call (Species/Cell Type: Human, Assay Type: Sister-chromatid exchange (SCE) in vitro, Assay Code: SC1+D, Dose Response: With dose response, Evaluation Type: Evaluation B (Post-1980)) was “active; positive”.

With `CCCCN(CCCC)N=O` the mutagenic call [7] was “active; positive”, the mutagenic call (Species/Cell Type: Chinese hamster ovary (CHO) cells, Assay Type: Forward gene mutation at the HPRT locus, Assay Code: CHO+*, Activation: With metabolic activation, Evaluation Type: Evaluation B (Post-1980)) was “active; positive” and the mutagenic call (Species/Cell Type: Human diploid fibroblasts, Assay Type: Unscheduled DNA synthesis (UDS) in vitro, DNA effects, Assay Code: UDHT, Evaluation Type: Evaluation A (Pre-1980)) was “no conclusion”. For the same molecule, the mutagenic call [9] was “no conclusion”, the mutagenic call (Species/Cell Type: Mouse, Sex: Male, Assay Type: Sperm morphology, Assay Code: SPI-, Evaluation Type: Evaluation A (Pre-1980)) was “inactive; negative” and the mutagenic call (Species/Cell Type: Nonhuman, Assay Type: Chromosome aberrations in vitro, Assay Code: CY&-, Evaluation Type: Evaluation A (Pre-1980)) was “inactive; negative”. For the same molecule, the call (Species/Cell Type: Nonhuman, Assay Code: CCG+, Evaluation Type: Evaluation A (Pre-1980)) was “active; positive”, the mutagenic call [2] was “active; positive” and the mutagenic call (Species/Cell Type: Nonhuman, Assay Type: Sister-chromatid exchange (SCE) in vitro, Assay Code: SC2T, Evaluation Type: Evaluation A (Pre-1980)) was “no conclusion”. The mutagenic call (Species/Cell Type: Nonhuman, Assay Type: Sister-chromatid exchange (SCE) in vivo, Assay Code: SC3+, Evaluation Type: Evaluation B (Post-1980)) was “active; positive” and the mutagenic call [4] was “active; positive”.

With `c1cc2c3c(c1)cc1ccc4cccc5cc(c3c1c45)CC2` the mutagenic call [4] was “active; positive”.

`C#CC(C)OC(=O)Nc1cccc(Cl)c1` (stereo unspecified) (tested in a mixture with another compound) was tested, and the mutagenic call (Species/Cell Type: Saccharomyces cerevisiae, Assay Type: Mitotic recombination or gene conversion, Assay Code: YEC-, Evaluation Type: Evaluation A (Pre-1980)) was “inactive; negative”.

For `C=C(Cl)Cl`, the mutagenic call [3] was “inactive; negative”, the call [8] was “active; positive” and the mutagenic call [5] was “inactive; negative”. The mutagenic call [4] was “active; positive” and the mutagenic call (Species/Cell Type: Tradescantia species, Assay Type: Gene mutation, Assay Code: TRM+D, Dose Response: With dose response, Evaluation Type: Evaluation A (Pre-1980)) was “active; positive”.

`CCCCNC(=O)OCC` was tested, and the call (Species/Cell Type: Nonhuman, Assay Code: CCGT, Evaluation Type: Evaluation A (Pre-1980)) was “no conclusion” and the mutagenic call (Species/Cell Type: Nonhuman, Assay Type: Sister-chromatid exchange (SCE) in vitro, Assay Code: SC2-, Evaluation Type: Evaluation A (Pre-1980)) was “inactive; negative”.

With `C[C@]12C=CC(=O)C=C1CC[C@@H]1[C@@H]2CC[C@@]2(C)[C@H]1CC[C@]2(C)O` the mutagenic call (Species/Cell Type: Human, Sex: Male, Assay Type: Sperm morphology, Assay Code: SPH+, Evaluation Type: Evaluation A (Pre-1980)) was “active; positive”.
